Laboratory results: patent US20230140972A1, “GLYCEROL GLUCOSIDE-BASED COMPOUND AND COMPOSITION COMPRISING SAME FOR ULTRAVIOLET LIGHT SHIELD OR ANTI-INFLAMMATION” (ATHENA CO., LTD., priority 2020, published 2023)
Where “and” joins values, the source holds several entries; their conditions need not be identical. Equal values may be shown once.

Columns and labels:
p-IKK = assay: Western blot of p-IKK protein expression; type: cell-based, mouse; conditions: RAW264.7 cells, LPS, 15 minutes, 100 ppm; untreated = 100, negative control 1001.95
Method: (§1) A western blot was performed as follows to observe p-IKK, p-IκB and p-NF-κB protein expression abilities of the glycerol glucoside-based compound sample (EPS-S).
(§2) Specifically, the subcultured mouse-derived macrophage line, RAW264.7 cells, were aliquoted in a 60 mm dish at 1.5×10^6 cells, and cultured for 24 hours at 37° C. in an incubator containing 5% carbon dioxide, and then a culture media was replaced with a serum-free media. Then, the glycerol glucoside-based compound sample (EPS-S) was diluted by concentration and treated onto the cells with LPS (final 1 μg/mL). After culturing for 15 minutes, protein was lysed (lysis) to recover cytoplasmic and nuclear extracts, and proteins were separated by size through SDS-PAGE. After transferring the protein to a membrane through a transfer, a primary antibody was attached thereto and reacted at 4° C. overnight. After the primary reaction, a secondary antibody was attached thereto, and reacted at room temperature for 1 hour, an ECL solution was sprayed on the entire surface, and a band image was obtained through a bioimage analyzer. After obtaining a band intensity of each band through Image J, normalization was performed using β-acitn and substituted in Equation 7 below to obtain the expression rate of p-IKK, p-IκB and p-NF-κB proteins in the treated sample group compared to the untreated group.

p-IκB = assay: Western blot of p-IκB protein expression; type: cell-based, mouse; conditions: RAW264.7 cells, LPS, 15 minutes, 100 ppm; untreated = 100, negative control 390.06
Method: as §1, §2

[1] = tested on: NO2 production in LPS-treated RAW264.7 cells; assay: Nitric oxide (NO2) production amount and inhibition, non-enzymatic method; type: cell-based, mouse; conditions: LPS 1 μg/mL, 24 h
Method: An NO assay was performed to evaluate an amount of nitric oxide (NO2) production and a production inhibition ability of the glycerol glucoside-based compound sample (EPS-S).
Specifically, subcultured RAW264.7 cells were aliquoted into a 96-well plate at 1×10^5 cells/well, and cultured at 37° C. in an incubator containing 5% carbon dioxide for 24 hours, and then a culture media was replaced with a serum-free media. […] Dexamethasone was used as a positive control group.

RAW264.7 cells = assay: Cell viability measurement using MTT assay; type: cell-based, mouse; conditions: vs untreated group
Method: In order to evaluate a cell viability of the glycerol glucoside-based compound sample (EPS-S), an MTT assay was performed.
Specifically, subcultured RAW264.7 cells and HDF cells were aliquoted into a 96-well plate at 1×10^5, respectively, and cultured for 24 hours at 37° C. in an incubator containing 5% carbon dioxide, and then, a culture media was replaced with a serum-free media. Then, each sample was treated onto each cell by concentration. After culturing for 24 hours, an MTT solution was put into each well, reacted for 2 hours under light blocking, a supernatant was removed, a formed formazan was completely dissolved in DMSO, and an absorbance was measured at 540 nm with a microplate reader. In such a case, SDS was used as a positive control group. The test result value was calculated as in Equation 1 below and expressed as the cell viability compared to an untreated group, and was expressed as a mean±standard deviation.

[2] = tested on: total NO production in LPS-treated RAW264.7 cells; assay: Nitric oxide (total NO) production and inhibition, enzymatic method; type: cell-based, mouse; conditions: LPS 1 μg/mL
Method: An NO assay was performed to evaluate an amount of nitric oxide (total NO) production and a production inhibition rate of the glycerol glucoside-based compound sample (EPS-S).
Specifically, subcultured RAW264.7 cells were aliquoted into a 96-well plate at 1×10^5 cells/well, and cultured at 37° C. in an incubator containing 5% carbon dioxide for 24 hours, and then a culture media was replaced with a serum-free media. Then, each sample is diluted by concentration and treated onto the cells with LPS (final 1 μg/mL). After culturing for 24 hours, a cell culture medium was treated with nitrate reductase, enzyme cofactor and enhancer to react. A Griess reagent was added and an absorbance was measured at 540 nm with a microplate reader. A total NO production was obtained by substituting the absorbance into a standard nitric oxide calibration curve, and a total NO production inhibition rate (%) was analyzed through Equation 2 and expressed as a mean±standard deviation. Dexamethasone was used as a positive control group.

[3] = tested on: TNF-α production in RAW264.7 cells; assay: TNF-α production inhibition using ELISA assay; type: cell-based; conditions: Mus musculus, LPS 10 ng/mL
Method: A TNF-α production inhibition ability of the sample in RAW264.7 cells was evaluated using a TNF-α ELISA assay.
Specifically, subcultured RAW264.7 cells were aliquoted into a 6-well dish at 1.5×10^6 cells/well, and cultured for 24 hours at 37° C. in an incubator containing 5% carbon dioxide, and then a culture media was replaced with a serum-free media. Then, each sample was diluted by concentration and treated onto the cells with LPS (final 10 ng/mL). After culturing for 24 hours, the cell culture medium was recovered and the TNF-α ELISA assay was performed.
50 μL of an assay diluent was put into each well, and 50 μL of each of a standard solution and a cell culture solution were added to each well and reacted at room temperature for 2 hours. Thereafter, the reaction solution was removed from each well, washed with a wash buffer, 100 μL of TNF-α conjugate was added, and after reacting at room temperature for 2 hours, the reaction solution was removed from each well and washing is performed with a wash buffer.
Thereafter, 100 μL of a substrate solution was added and a reaction under light blocking was carried out at room temperature, and then 100 μL of a stop solution was added, and an absorbance was measured at 450 and 570 nm. Dexamethasone was used as a positive control group. After the test was conducted once, a TNF-α synthesis amount was calculated by substituting the absorbance value into a TNF-α standard solution calibration curve, and then the TNF-α production inhibition rate (%) was calculated using Equation 3 below, and expressed as the mean±standard deviation of the experiment.

p-NF-κB = assay: Western blot of p-NF-κB protein expression; type: cell-based, mouse; conditions: RAW264.7 cells, LPS, 15 minutes, 100 ppm; untreated = 100, negative control 222.25
Method: as §1, §2

Structure (SMILES): COCC(COC)OC1OC(CO)C(O)C(O)C1O (stereo not shown) [EPS-S]
- p-IKK protein expression rate (p-IKK): 514.98%
- p-IκB protein expression rate (p-IκB): 203.52%
- NO2 production amount ([1]; 10 ppm): 23.14 ± 0.25 µM
- NO2 production amount ([1]; 100 ppm): 23.14 µM and 22.57 ± 0.16 µM
- NO2 production amount ([1]; 500 ppm (text b168)): 22.57 µM
- NO2 production amount ([1]; 1000 ppm): 20.90 µM and 20.90 ± 0.50 µM
- inhibition at 100 ppm ([1]; Mus musculus, RAW264.7, 100 ppm, read-out: NO2 production inhibition rate): 9.47%
- inhibition at 500 ppm ([1]; Mus musculus, RAW264.7, 500 ppm, read-out: NO2 production inhibition rate): 13.2%
- inhibition at 1000 ppm ([1]; Mus musculus, RAW264.7, 1000 ppm, read-out: NO2 production inhibition rate): 24%
- cell viability (RAW264.7 cells; 24 h, 1 ppm): 103.36% and 103.36 ± 0.88%
- cell viability (RAW264.7 cells; 24 h, 10 ppm): 104.47% and 104.47 ± 3.61%
- cell viability (RAW264.7 cells; 24 h, 100 ppm): 108.58% and 108.58 ± 1.99%
- cell viability (RAW264.7 cells; 24 h, 1,000 ppm): 113.79% and 113.79 ± 0.13%
- Total NO production ([2]; 24 h, 100 ppm): 62.07 µM and 62.07 ± 0.48 µM
- Total NO production inhibition rate ([2]; 24 h, 100 ppm): −3.85 ± 2.22%
- Total NO production ([2]; 24 h, 500 ppm): 59.20 µM and 59.20 ± 0.86 µM
- Total NO production ([2]; 24 h, 1000 ppm): 53.38 µM and 53.38 ± 0.18 µM
- inhibition at 10 ppm ([2]; Mus musculus, RAW264.7, 24 h, 10 ppm, read-out: Total NO production inhibition rate): -11.3 ± 1.24%
- inhibition at 500 ppm ([2]; Mus musculus, RAW264.7, 24 h, 500 ppm (text b176), read-out: Total NO production inhibition rate): -3.84%
- inhibition at 1000 ppm ([2]; Mus musculus, RAW264.7, 24 h, 1000 ppm, read-out: Total NO production inhibition rate): 11.2%
- inhibition at 10 ppm ([3]; 24 h, 10 ppm, read-out: TNF-α production inhibition ability): 29.7%
- inhibition at 100 ppm ([3]; 24 h, 100 ppm, read-out: TNF-α production inhibition ability): 34.9%
- inhibition at 500 ppm ([3]; 24 h, 500 ppm, read-out: TNF-α production inhibition ability): 49.7%
- inhibition at 1000 ppm ([3]; 24 h, 1,000 ppm, read-out: TNF-α production inhibition ability): 77.6%
- p-NF-κB protein expression rate (p-NF-κB): 185.30%

Structure (SMILES): C[C@@H]1C[C@H]2[C@@H]3CCC4=CC(=O)C=C[C@]4(C)[C@@]3(F)[C@@H](O)C[C@]2(C)[C@@]1(O)C(=O)CO [Dexamethasone]
- NO2 production amount ([1]; 10 μM): 21.29 ± 0.59 µM
- NO2 production amount ([1]; 10 μM, listed as dexamethasone): 21.29 µM
- NO2 production amount ([1]; 20 μM): 20.79 ± 0.12 µM
- NO2 production amount ([1]; 20 μM, listed as dexamethasone): 20.79 µM
- NO2 production amount ([1]; 80 μM): 19.62 ± 0.50 µM
- NO2 production amount ([1]; 80 μM, listed as dexamethasone): 19.62 µM
- inhibition at 10 µM ([1]; Mus musculus, RAW264.7, 10 μM, read-out: NO2 production inhibition rate): 21.5%
- inhibition at 20 µM ([1]; Mus musculus, RAW264.7, 20 μM, read-out: NO2 production inhibition rate): 24.7%
- inhibition at 80 µM ([1]; Mus musculus, RAW264.7, 80 μM, read-out: NO2 production inhibition rate): 32.3%
- Total NO production ([2]; 24 h, 10 μM): 41.15 ± 0.43 µM
- Total NO production ([2]; 24 h, 10 μM, listed as dexamethasone): 41.15 µM
- Total NO production ([2]; 24 h, 20 μM): 38.84 ± 1.24 µM
- Total NO production ([2]; 24 h, 20 μM, listed as dexamethasone): 38.84 µM
- Total NO production ([2]; 24 h, 80 μM): 37.82 ± 0.75 µM
- Total NO production ([2]; 24 h, 80 μM, listed as dexamethasone): 37.82 µM
- inhibition at 10 µM ([2]; Mus musculus, RAW264.7, 24 h, 10 μM, read-out: Total NO production inhibition rate): 42.8%
- inhibition at 20 µM ([2]; Mus musculus, RAW264.7, 24 h, 20 μM, read-out: Total NO production inhibition rate): 48.7%
- inhibition at 80 µM ([2]; Mus musculus, RAW264.7, 24 h, 80 μM, read-out: Total NO production inhibition rate): 51.4%
- inhibition at 1 µM ([3]; 24 h, 1 μM, read-out: TNF-α production inhibition ability): 13.8%
- inhibition at 5 µM ([3]; 24 h, 5 μM, read-out: TNF-α production inhibition ability): 34.7%
- inhibition at 10 µM ([3]; 24 h, 10 μM, read-out: TNF-α production inhibition ability): 46.5%
- inhibition at 20 µM ([3]; 24 h, 20 μM, read-out: TNF-α production inhibition ability): 52.1%
- inhibition at 50 µM ([3]; 24 h, 50 μM (text b137), read-out: TNF-α production inhibition rate): 65%
- inhibition at 80 µM ([3]; 24 h, 80 μM, read-out: TNF-α production inhibition ability): 65.05 ± 0.6%
